# In patent publication US10981881B2, “FXR (NR1H4) modulating compounds” (Gilead Sciences, Inc., priority 2016, dated 2021):
# How the values were obtained:
# [1] = Metabolite ID assay in human liver microsomes; assay type: in vitro ADME; settings: human liver microsomes 1 mg/mL, 1 mM NADPH, 0, 30, 60 minutes
# Procedure: The metabolic stability of Example 3 and Comparative Example 1 in human liver microsomes was conducted according to the following procedure. Human liver microsomes (35 μL protein concentration 20 mg/mL), 350 μL of 100 mM potassium phosphate buffer (pH 7.4), 245 μL of deionized water and 0.7 μL of compound stock solution (5 mM) were combined in a 1.5 mL microcentrifuge tube. The tube was sealed and gently vortexed for 10 seconds, then placed in an Eppendorf ThermoMixer C and pre-warmed at 37° C. with shaking at 1100 rpm for 5 minutes.
# NADPH solution (70 μL; 10 mM in water) was added while shaking, the mixture was aspirated several times with pipet, and 200 μL was removed to a fresh 1.5 mL microcentrifuge tube on ice containing 200 μL of cold acetonitrile. […]
# The chilled aliquots were centrifuged at 14,300 rpm in a microcentrifuge for 10 minutes at 10° C., then the supernatant was transferred to a deepwell (1 mL) 96 well plate and sealed with a silicon mat. […] 20 μL samples were analyzed by UPLC-MS in order to identify and quantify the metabolites (Agilent 1290 G4220 binary pump UPLC with Agilent G1316 TCC column oven; Waters Acquity UPLC BEH C18 (130 Å pore size, 1.7 μm particle size, 2.1×50 mm) column held at 40° C.; Agilent 1290 G4212 DAD diode array with wavelength range 190 to 400 nm; Thermo Electron Orbitrap Elite mass spectrometer in FTMS positive mode). […]
# [2] = tested on: FGF19; settings: cynomolgus monkey, in vivo, po, 300 mg/kg
# Procedure: In vivo pharmacodynamics of a representative compound of Formula (I) and a comparative example compound were determined as follows.
# Each dosing group consisted of three male Cynomolgus monkeys. At dosing, the animals weighed between 2.5 and 4.4 kg.
# The test articles were administered to the monkeys via oral gavage at 5 mL/kg. Prior to withdrawal, the gavage tube was flushed with approximately 10 mL of water.
# Venous blood samples were taken at specified time points after dosing from each animal. The blood samples were collected and transferred into tubes containing potassium (K2) EDTA anticoagulant.
# The FGF19 ELISA assay kit from BioVendor (product number RD191107200R) was used to determine FGF19 concentrations in the collected blood samples.
# An aliquot of 50 μL of each plasma sample from the 10 and 30 mg/kg dosing groups and the t=0 samples from the 100 and 300 mg/kg groups were treated with 200 μL of acetonitrile (ACN) containing internal standard. […] Samples exceeding the calibration range of the instrument were diluted and re-analyzed. […]
# An API 5000 triple quadrupole mass spectrometer from AB Sciex, Foster City, Calif. was used in multiple reaction monitoring mode to quantify the compounds.
formation of diol metabolite M1 [1],maximal plasma AUC achieved [2],plasma FGF19 Cmax ([2]; male) [ng/mL],Structure (SMILES)
metabolized to a diol compound (M1),–,–,O=C(O)c1cnc(N2CC(O)(c3ccc(OCc4c(-c5c(Cl)cccc5Cl)noc4C4CC4)cc3Cl)C2)c(F)c1 [Comparative Example 1]
–,comparable,16,"O=C(O)c1cnc(N2CC(O)(c3ccc(OCc4c(-c5c(Cl)cc(F)cc5Cl)noc4C4CC4)cc3Cl)C2)c(F)c1 [Example 3, 6-(3-(2-chloro-4-((5-cyclopropyl-3-(2,6-dichloro-4-fluorophenyl)isoxazol-4-yl)methoxy)phenyl)-3-hydroxyazetidin-1-yl)-5-fluoronicotinic acid]"
